Laboratory results from BindingDB's records for doi:10.1016/s0960-894x(99)00360-1 (Parke-Davis Pharmaceutical Research, 1999).
pIC50: −log10 of the molar value.

Target: T1, Dimer of Gag-Pol polyprotein [489-587] (Human immunodeficiency virus 1, UniProt P12497)
T1 construct: 489-587
Test: Protease Inhibition Assay
Conditions: pH 6.2; 37 °C
Experimental: For determination of IC50 values, HIV-1 protease was added to assay buffer containing inhibitor and the substrate (H-His-Lys-Ala-Arg-Val-Leu- (p-NO2) Phe-Glu-Ala-norleucine-Ser-NH2). The Leu- (p-NO2) Phe bond of the substrate was cleaved by the enzyme, and the substrate and products were separated by reversed-phase HPLC. Absorbance was measured at 220 nm, peak areas were determined, and percentage conversion to product was calculated.

Row | SMILES | pIC50
1 | CCNS(=O)(=O)Oc1cc(C(C)(C)C)c(SC2C(=O)CC(CCc3ccccc3)(C(C)C)OC2=O)cc1C (stereo unspecified) | 8.05
2 | Cc1cc(SC2C(=O)CC(CCc3ccc(N)cc3)(C(C)C)OC2=O)c(C(C)(C)C)cc1OS(=O)(=O)N1CCN(C)CC1 (stereo unspecified) [4-({6-[2-(4-aminophenyl)ethyl]-4-hydroxy-2-oxo-6-(propan-2-yl)-5,6-dihydro-2H-pyran-3-yl}sulfanyl)-5-tert-butyl-2-methylphenyl 4-methylpiperazine-1-sulfonate] | 9.00
3 | Cc1cc(SC2C(=O)CC(CCc3ccc(N)cc3)(C(C)C)OC2=O)c(C(C)(C)C)cc1OS(=O)(=O)N(C)C (stereo unspecified) [4-({6-[2-(4-aminophenyl)ethyl]-4-hydroxy-2-oxo-6-(propan-2-yl)-5,6-dihydro-2H-pyran-3-yl}sulfanyl)-5-tert-butyl-2-methylphenyl N,N-dimethylsulfamate] | 8.41
4 | CCNS(=O)(=O)Oc1cc(C(C)(C)C)c(SC2C(=O)CC(CCc3ccc(N)cc3)(C(C)C)OC2=O)cc1C (stereo unspecified) [4-({6-[2-(4-aminophenyl)ethyl]-4-hydroxy-2-oxo-6-(propan-2-yl)-5,6-dihydro-2H-pyran-3-yl}sulfanyl)-5-tert-butyl-2-methylphenyl N-ethylsulfamate] | 8.37
5 | Cc1cc(SC2C(=O)CC(CCc3ccc(O)cc3)(C(C)C)OC2=O)c(C(C)(C)C)cc1OS(=O)(=O)N1CCN(C)CC1 (stereo unspecified) [5-tert-butyl-4-({4-hydroxy-6-[2-(4-hydroxyphenyl)ethyl]-2-oxo-6-(propan-2-yl)-5,6-dihydro-2H-pyran-3-yl}sulfanyl)-2-methylphenyl 4-methylpiperazine-1-sulfonate] | 8.51
6 | CNS(=O)(=O)Oc1cc(C(C)(C)C)c(SC2C(=O)CC(CCc3ccc(O)cc3)(C(C)C)OC2=O)cc1C (stereo unspecified) [5-tert-butyl-4-({4-hydroxy-6-[2-(4-hydroxyphenyl)ethyl]-2-oxo-6-(propan-2-yl)-5,6-dihydro-2H-pyran-3-yl}sulfanyl)-2-methylphenyl N-methylsulfamate] | 8.92
7 | CCCNS(=O)(=O)Oc1cc(C(C)(C)C)c(SC2C(=O)CC(CCc3ccc(O)cc3)(C(C)C)OC2=O)cc1C (stereo unspecified) [5-tert-butyl-4-({4-hydroxy-6-[2-(4-hydroxyphenyl)ethyl]-2-oxo-6-(propan-2-yl)-5,6-dihydro-2H-pyran-3-yl}sulfanyl)-2-methylphenyl N-propylsulfamate] | 8.52
8 | Cc1cc(SC2C(=O)CC(CCc3ccc(O)cc3)(C(C)C)OC2=O)c(C(C)(C)C)cc1OS(=O)(=O)N1CCOCC1 (stereo unspecified) [5-tert-butyl-4-({4-hydroxy-6-[2-(4-hydroxyphenyl)ethyl]-2-oxo-6-(propan-2-yl)-5,6-dihydro-2H-pyran-3-yl}sulfanyl)-2-methylphenyl morpholine-4-sulfonate] | 8.59
9 | CCNS(=O)(=O)Oc1cc(C(C)(C)C)c(SC2C(=O)CC(CCc3ccc(O)cc3)(c3ccccc3)OC2=O)cc1C (stereo unspecified) [5-tert-butyl-4-({4-hydroxy-6-[2-(4-hydroxyphenyl)ethyl]-2-oxo-6-phenyl-5,6-dihydro-2H-pyran-3-yl}sulfanyl)-2-methylphenyl N-ethylsulfamate] | 7.59
10 | Cc1cc(SC2C(=O)CC(C)(CCc3ccc(O)cc3)OC2=O)c(C(C)(C)C)cc1OS(=O)(=O)N1CCN(C)CC1 (stereo unspecified) [5-tert-butyl-4-({4-hydroxy-6-[2-(4-hydroxyphenyl)ethyl]-6-methyl-2-oxo-5,6-dihydro-2H-pyran-3-yl}sulfanyl)-2-methylphenyl 4-methylpiperazine-1-sulfonate] | 8.15
11 | Cc1cc(SC2C(=O)CC(C)(CCc3ccc(O)cc3)OC2=O)c(C(C)(C)C)cc1OS(=O)(=O)N(C)C (stereo unspecified) [5-tert-butyl-4-({4-hydroxy-6-[2-(4-hydroxyphenyl)ethyl]-6-methyl-2-oxo-5,6-dihydro-2H-pyran-3-yl}sulfanyl)-2-methylphenyl N,N-dimethylsulfamate] | 8.80
12 | CCNS(=O)(=O)Oc1cc(C(C)(C)C)c(SC2C(=O)CC(C)(CCc3ccc(O)cc3)OC2=O)cc1C (stereo unspecified) [5-tert-butyl-4-({4-hydroxy-6-[2-(4-hydroxyphenyl)ethyl]-6-methyl-2-oxo-5,6-dihydro-2H-pyran-3-yl}sulfanyl)-2-methylphenyl N-ethylsulfamate] | 8.64
13 | CCCNS(=O)(=O)Oc1cc(C(C)(C)C)c(SC2C(=O)CC(C)(CCc3ccc(O)cc3)OC2=O)cc1C (stereo unspecified) [5-tert-butyl-4-({4-hydroxy-6-[2-(4-hydroxyphenyl)ethyl]-6-methyl-2-oxo-5,6-dihydro-2H-pyran-3-yl}sulfanyl)-2-methylphenyl N-propylsulfamate] | 8.21
14 | Cc1cc(SC2C(=O)CC(CCc3ccc(O)cc3)(C3CCCCC3)OC2=O)c(C(C)(C)C)cc1OS(=O)(=O)N1CCN(C)CC1 (stereo unspecified) [5-tert-butyl-4-({6-cyclohexyl-4-hydroxy-6-[2-(4-hydroxyphenyl)ethyl]-2-oxo-5,6-dihydro-2H-pyran-3-yl}sulfanyl)-2-methylphenyl 4-methylpiperazine-1-sulfonate] | 8.01
15 | Cc1cc(SC2C(=O)CC(CCc3ccc(O)cc3)(C3CCCCC3)OC2=O)c(C(C)(C)C)cc1OS(=O)(=O)N(C)C (stereo unspecified) [5-tert-butyl-4-({6-cyclohexyl-4-hydroxy-6-[2-(4-hydroxyphenyl)ethyl]-2-oxo-5,6-dihydro-2H-pyran-3-yl}sulfanyl)-2-methylphenyl N,N-dimethylsulfamate] | 7.70
16 | CCNS(=O)(=O)Oc1cc(C(C)(C)C)c(SC2C(=O)CC(CCc3ccc(O)cc3)(C3CCCCC3)OC2=O)cc1C (stereo unspecified) [5-tert-butyl-4-({6-cyclohexyl-4-hydroxy-6-[2-(4-hydroxyphenyl)ethyl]-2-oxo-5,6-dihydro-2H-pyran-3-yl}sulfanyl)-2-methylphenyl N-ethylsulfamate] | 8.32
17 | Cc1cc(SC2C(=O)CC(CCc3ccccc3)(C(C)C)OC2=O)c(C(C)(C)C)cc1OS(=O)(=O)N1CCN(C)CC1 (stereo unspecified) [5-tert-butyl-4-{[4-hydroxy-2-oxo-6-(2-phenylethyl)-6-(propan-2-yl)-5,6-dihydro-2H-pyran-3-yl]sulfanyl}-2-methylphenyl 4-methylpiperazine-1-sulfonate] | 8.41
18 | Cc1cc(SC2C(=O)CC(C)(CCc3ccc(O)cc3)OC2=O)c(C(C)(C)C)cc1O (stereo unspecified) [6-Alkyl-5,6-Dihydropyran-2-one 13] | 8.19
19 | CCNS(=O)(=O)Oc1cc(C(C)(C)C)c(SC2C(=O)CC(CCc3ccc(O)cc3)(C(C)C)OC2=O)cc1C (stereo unspecified) [6-Alkyl-5,6-Dihydropyran-2-one 20] | 8.31
20 | Cc1cc(SC2C(=O)CC(CCc3ccc(O)cc3)(C(C)C)OC2=O)c(C(C)(C)C)cc1OS(=O)(=O)N(C)C (stereo unspecified) [6-Alkyl-5,6-Dihydropyran-2-one 22] | 8.47
21 | Cc1cc(SC2C(=O)CC(C)(CCc3ccc(O)cc3)OC2=O)c(C(C)(C)C)cc1OS(N)(=O)=O (stereo unspecified) [[5-tert-butyl-4-({4-hydroxy-6-[2-(4-hydroxyphenyl)ethyl]-6-methyl-2-oxo-5,6-dihydro-2H-pyran-3-yl}sulfanyl)-2-methylphenyl] sulfamate] | 8.74
